Test results taken from ChEMBL document CHEMBL1201862, “PubChem BioAssay data set” (2004).
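Five concentrations, 48 hours, 96-well plates. GI50 is the concentration that inhibits growth by half.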 The source made the active and inactive calls. No stated cut-off is given here; in the data, active = GI50 up to about 1.1 µM and inactive = higher.

What was measured:
Test in all cases: DTP human tumour cell line panel, 48 h
[1] = tested on: NCI-H226
[2] = tested on: UACC-257
[3] = tested on: MDA-MB-231
[4] = tested on: MCF7
[5] = tested on: HCC 2998
[6] = tested on: A498
[7] = tested on: U-251
[8] = tested on: A549
[9] = tested on: SF-268
[10] = tested on: OVCAR-3
[11] = tested on: SK-MEL-5
[12] = tested on: 786-0
[13] = tested on: UACC-62
[14] = tested on: DU-145
[15] = tested on: SF-295
[16] = tested on: MDA-MB-435
[17] = tested on: HCT-15
[18] = tested on: SK-MEL-2
[19] = tested on: CCRF-CEM
[20] = tested on: OVCAR-4

| Compound | GI50 [1] | GI50 [2] | GI50 [3] | GI50 [4] | GI50 [5] | GI50 [6] | GI50 [7] | GI50 [8] | GI50 [9] | GI50 [10] | GI50 [11] | GI50 [12] | GI50 [13] | GI50 [14] | GI50 [15] | GI50 [16] | GI50 [17] [µM] | GI50 [18] | GI50 [19] | GI50 [20] |
| --- | --- | --- | --- | --- | --- | --- | --- | --- | --- | --- | --- | --- | --- | --- | --- | --- | --- | --- | --- | --- |
| COc1cc([C@@H]2c3cc4c(cc3[C@@H](/N=C/c3ccc(C(=O)O[C@@H](C(=O)O[C@H]5C[C@@]6(O)[C@@H](OC(=O)c7ccccc7)[C@@H]7[C@]8(OC(C)=O)CO[C@@H]8C[C@H](O)[C@@]7(C)C(=O)[C@H](OC(C)=O)C(=C5C)C6(C)C)[C@@H](NC(=O)c5ccccc5)c5ccccc5)cc3)[C@H]3COC(=O)[C@H]23)OCO4)cc(OC)c1O | 0.075 µM (active) | 0.109 µM (active) | 0.116 µM (active) | 0.0128 µM (active) | 0.0189 µM (active) | 0.133 µM (active) | 0.0154 µM (active) | 0.0266 µM (active) | 0.0703 µM (active) | 0.00893 µM (active) | 0.0154 µM (active) | 0.0748 µM (active) | 0.0815 µM (active) | 0.0261 µM (active) | 0.171 µM (active) | < 0.005 µM (active) | 13.3 | 0.0335 µM (active) | 0.0118 µM (active) | – |
| S=C1C(CCCOCc2ccccc2)C2CCCC23CC2(CCN13)OCCS2 (stereo unspecified) | > 10 µM (inactive) | > 10 µM (inactive) | > 10 µM (inactive) | > 10 µM (inactive) | > 10 µM (inactive) | > 10 µM (inactive) | > 10 µM (inactive) | – | > 10 µM (inactive) | > 10 µM (inactive) | > 10 µM (inactive) | > 10 µM (inactive) | – | > 10 µM (inactive) | > 10 µM (inactive) | > 10 µM (inactive) | > 10 | > 10 µM (inactive) | > 10 µM (inactive) | > 10 µM (inactive) |
| CCOC(NC(=O)CC)(C(F)(F)F)C(F)(F)F | > 100 µM (inactive) | > 100 µM (inactive) | > 100 µM (inactive) | > 100 µM (inactive) | > 100 µM (inactive) | > 100 µM (inactive) | > 100 µM (inactive) | > 100 µM (inactive) | > 100 µM (inactive) | > 100 µM (inactive) | > 100 µM (inactive) | > 100 µM (inactive) | > 100 µM (inactive) | > 100 µM (inactive) | > 100 µM (inactive) | > 100 µM (inactive) | > 100 | > 100 µM (inactive) | > 100 µM (inactive) | – |
| O=C(NC(OCc1ccccc1)(C(F)(F)F)C(F)(F)F)OCc1ccccc1 | 14.1 µM (inactive) | 14.2 µM (inactive) | 17.7 µM (inactive) | 16.4 µM (inactive) | 15.4 µM (inactive) | 17.7 µM (inactive) | 14.1 µM (inactive) | 15 µM (inactive) | 18.2 µM (inactive) | 15.3 µM (inactive) | 15.8 µM (inactive) | 16.5 µM (inactive) | 13.9 µM (inactive) | 16.6 µM (inactive) | 17.6 µM (inactive) | 17.3 µM (inactive) | 13.8 | 15.3 µM (inactive) | 16.1 µM (inactive) | – |
| CCOC(=O)/C(C(=O)NC(C)C)=C(/N)N1CCOCC1 | > 100 µM (inactive) | > 100 µM (inactive) | > 100 µM (inactive) | > 100 µM (inactive) | > 100 µM (inactive) | > 100 µM (inactive) | > 100 µM (inactive) | > 100 µM (inactive) | > 100 µM (inactive) | > 100 µM (inactive) | – | > 100 µM (inactive) | > 100 µM (inactive) | > 100 µM (inactive) | > 100 µM (inactive) | > 100 µM (inactive) | > 100 | > 100 µM (inactive) | > 100 µM (inactive) | > 100 µM (inactive) |
| CCOP(=O)(C/C=C/Cn1ncc(=O)[nH]c1=O)OCC | > 100 µM (inactive) | > 100 µM (inactive) | > 100 µM (inactive) | > 100 µM (inactive) | > 100 µM (inactive) | > 100 µM (inactive) | > 100 µM (inactive) | > 100 µM (inactive) | > 100 µM (inactive) | > 100 µM (inactive) | > 100 µM (inactive) | – | – | > 100 µM (inactive) | – | > 100 µM (inactive) | > 100 | > 100 µM (inactive) | > 100 µM (inactive) | > 100 µM (inactive) |
